One data set relates to mouse heart mitochondria. Put plainly: Mitochondria number, morphology and respiration in mouse hearts after TAC. It counts as in vivo. The following applies: 10 weeks after TAC, vs Veh. Here is the method: The assay was performed using Seahorse (Agilent) and following the manufacturer's published protocol. Isolated mitochondria (0.5 μg; measured by BCA assay) were loaded per assay.
Total DNA was extracted from the hearts or NRVMs using the QIAamp DNA Mini Kit (Qiagen, 51304). Mitochondrial DNA content was assessed by qPCR using primers specific for multiple mitochondrial-encoded genes (int-Cox1, mt-Nd2, int-Nd1, and mt-Nd5) and normalized to nuclear DNA content (a specific locus on mouse chromosome 6) using the ΔΔCt method.
Small pieces of tissue from the LV free wall were fixed by sequential immersion in triple aldehyde-DMSO, ferrocyanide-reduced osmium tetroxide, and acidified uranyl acetate; dehydrated in ascending concentrations of ethanol; passed through propylene oxide; and embedded in Poly/Bed resin (Polysciences Inc., 21844-1). Thin sections were sequentially stained with acidified uranyl acetate, followed by a modification of Sato's triple lead stain, and examined with a JEOL 1200EX electron microscope.

In data set [1] the test system is cardiac fibroblasts (CFs). Put plainly: TGβ1-induced inflammatory response of cultured cardiac fibroblasts (CFs). It counts as cell-based, rat. The following applies: cultured CFs pretreated with Veh or SR9009. Here is the method: (§1) NRVMs and CFs were isolated from the hearts of 2-day-old Sprague-Dawley rat pups (Charles River Laboratories). The cells were differentially preplated for 1.5 hr. The nonattached cells were collected as NRVM and replated with 48 hr exposure to BrdU to suppress nonmyocytes. The attached cells were passaged 2-3 times to obtain CFs. NRVMs were initially plated in growth medium (DMEM supplemented with 10% FBS, 100 U/ml penicillin-streptomycin, and 2 mM L-glutamine) for 48 hr and maintained in serum-free media thereafter (DMEM supplemented with 1% insulin-transferrin-selenium liquid media supplement [Sigma-Aldrich, 13146], 100 U/ml penicillin-streptomycin). For hypertrophic stimulation, NRVM were incubated with SR9009 or GSK4112 versus DMSO for 24 hr, followed by stimulation with PE (100 μM) for the indicated time. CFs were cultured in DMEM supplemented with 10% FBS, 100 U/ml penicillin-streptomycin, and 2 mM L-glutamine and stimulated with TGβ1 (eBioscience).

The conditions of data set [2]: mouse, in vivo. Here is the method:
Conscious tail-vein systolic blood pressure was measured using the BP2000 Blood Pressure Analysis System (Visitech Systems Inc.) as recommended by the manufacturer. To allow mice to adapt to the apparatus, we performed daily blood pressure measurements for 1 week prior to beginning experiments.
SR9009 is a drug given systemically and may potentially affect other systems, such as the vascular tone, although pressure overload itself is considered a relatively specific stress directly on the heart. To exclude the possibility that the improved cardiac function and reduced hypertrophy in vivo is associated with improvement in hemodynamics, we measured blood pressure using tail cuff and found there is no difference in mice receiving 4 weeks of Veh (mean arterial pressure [MAP]=106 mmHg) or SR9009 (MAP=115 mmHg, P=0.24).

Data set [3] deals with C57BL/6J mice, 28-gauge TAC heart failure model. As to the kind of experiment: Heart failure model, 28-gauge TAC with cross-over, 11-week followup. It counts as in vivo, mouse. As for the experimental part:
(§2) SR9009 was synthesized and purified in the laboratory of Thomas Burris (Department of Pharmacology and Physiology, St. Louis University, St. Louis, Mo., USA). For in vitro experiments, SR9009 was dissolved in DMSO and administered at […]; GSK4112 (EMD Millipore) was dissolved in DMSO and administered at […] using an equal volume of DMSO as control. For in vivo experiments, SR9009 was dissolved in 5% DMSO/10% Cremaphor EL (Sigma-Aldrich, C5135)/85% PBS in a working solution at 10 mg/ml. Micewere injected at a dose of 100 mg/kg/day given i.p. once daily at zeitgeber time 8 (ZT8). The diluent without SR9009 of the same volume was used as control.
(§3) All mice were C57BL/6J littermate males aged 9 weeks at the start of the experiment. Mice were anesthetized with ketamine/xylazine, mechanically ventilated (Harvard apparatus), and subjected to thoracotomy. The aortic arch was constricted between the left and right carotid arteries using a 7.0 silk suture and a 27- or 28-gauge needle as previously described (20). Chemicals were obtained from Sigma-Aldrich.
For transthoracic echocardiography, mice were anesthetized with 1% inhalational isofluorane and imaged using the Vevo 770 High Resolution Imaging System (Visual Sonics Inc.) and the RMV-707B 30 MHz probe. Measurements were obtained from M-mode sampling, and integrated EKVimages were taken in the LV short axis at the mid-papillary level. […]

In data set [4] the test system is neonatal rat ventricular myocytes (NRVMs). As to the kind of experiment: Phenylephrine-induced (PE-induced) cardiomyocyte hypertrophy in NRVMs. It counts as cell-based. Set-up: PE-induced cellular hypertrophy (cell size) / PE-induced expression of cellular stress markers (qPCR of Nppa and Nppb): unit of the concentration uncertain. Here is the method: as §2
as §1, with “CFs were cultured in DMEM supplemented with 10% FBS, 100 U/ml penicillin-streptomycin, and 2 mM L-glutamine and stimulated with TGβ1 (eBioscience).” left out
NRVM were plated on glass coverslips in 6-well dishes at a density of 1×10^5 cells/ml. […] Quantitation of cardiomyocyte cell surface area was performed on anti-actinin-stained cardiomyocytes using fluorescent microscopy and ImagePro software. […]
(§4) For tissue RNA, a 10-20 mg piece of mouse heart at apex was preserved in RNA Later stabilization reagent (Qiagen) followed by mechanical disruption/homogenization in Trizol (Life Technologies) on a TissueLyser (Qiagen) using stainless steel beads (Qiagen). […] Relative expression was calculated using the ΔΔCt-method with normalization to Ppib (Cyclophilin-B). […]

The subject of data set [5] is C57BL/6J mice, TAC pressure overload. Put plainly: Pressure overload model, transaortic constriction (TAC, 27 gauge), 6-week followup. The following applies: for Corrected left ventricle mass (LVm): echocardiogram; for Ejection fraction (EF): SR9009 i.p. daily from 1 day after surgery. It counts as in vivo. As for the experimental part:
SR9009 was synthesized and purified in the laboratory of Thomas Burris (Department of Pharmacology and Physiology, St. Louis University, St. Louis, Mo., USA). For in vitro experiments, SR9009 was dissolved in DMSO and administered at […]; GSK4112 (EMD Millipore) was dissolved in DMSO and administered at […] using an equal volume of DMSO as control. For in vivo experiments, SR9009 was dissolved in 5% DMSO/10% Cremaphor EL (Sigma-Aldrich, C5135)/85% PBS in a working solution at 10 mg/ml. […] The diluent without SR9009 of the same volume was used as control.
as §3
For transthoracic echocardiography, mice were anesthetized with 1% inhalational isofluorane and imaged using the Vevo 770 High Resolution Imaging System (Visual Sonics Inc.) and the RMV-707B 30 MHz probe. Measurements were obtained from M-mode sampling, and integrated EKVimages were taken in the LV short axis at the mid-papillary level.
Short-axis heart sections from the midventricle were fixed in PBS/4% paraformaldehyde and embedded in paraffin. Fibrosis was visualized using Gomori's Trichrome staining kit (Sigma-Aldrich) with quantification of fibrotic area using ImagePro software. TUNEL staining was performed using the CardioTACS In Situ Apoptosis Detection kit (R&D Systems) according to manufacturer's instructions. Cryopreserved sections were used for myocardial capillary staining, which was performed in frozen LV sections using anti-PECAM-1 antibodies (1:200, BD Pharmingen, MEC13.3). The cardiomyocyte cross-sectional area was determined by staining with WGA Alexa 594 (Life Technologies) and analyzed using ImagePro software.
Given the strong effect of SR9009 in blocking the cellular remodeling in response to neurohormonal stress, we next tested the role of REV-ERBα activation in vivo using the classical pressure overload model. We started daily i.p. injection of SR9009 or Veh 1 day after transaortic constriction (TAC, 27 gauge) surgery and monitored cardiac hypertrophy and function by echocardiogram for 6 weeks. […] These findings were later confirmed by autopsy performed 6 weeks after TAC by heart weight and muscle fiber size analyses using wheat germ agglutinin staining on cryopreserved sections (FIGS. 3, B-E).

For data set [6], the system named is human induced pluripotent stem cell-differentiated cardiomyocytes (iPS-CM). Put plainly: Endothelin-1-induced hypertrophic response in human iPS-differentiated cardiomyocytes. It counts as cell-based. The following applies: SR9009 pretreatment, ET-1 (10 nM). Here is the method: We purchased human induced pluripotent stem cell-differentiated cardiomyocytes from Cellular Dynamics (iCell). We followed manufacturer's protocol and measured NPPB expression 24 hr after ET-1 (10 nM, Sigma-Aldrich) induction.
as §4, with “(Qiagen). RNA was purified from the aqueous phase using the miRNAeasy kit (Qiagen) following manufacturer's instructions. For cellular samples, total RNA from NRVM was isolated using the High Pure RNA isolation kit (Roche Diagnostics) with on-column DNAase treatment according to manufacturer's directions.” for “(Qiagen).”
We induced cellular hypertrophic response in human induced pluripotent stem cell-differentiated cardiomyocytes with endothelin-1 (ET-1) and monitored NPPB (BNP) expression with SR9009 or Veh pretreatment.

Turning to `CCOC(=O)N1CCC(CN(Cc2ccc(Cl)cc2)Cc2ccc([N+](=O)[O-])s2)C1` (stereo not shown) [SR9009], in the data set on mouse heart mitochondria, the “Mitochondria morphology by electron microscopy” value is on record as “no difference”, the “Mitochondria number estimated by mtDNA to nuclear DNA ratio” value is listed as “no difference” and the “Oxidative phosphorylation (OXPHOS) measured by oxygen consumption rate” value is “no difference”. Besides, the TGβ1-induced inflammatory response entry in data set [1] was “no difference”. For the same molecule, in data set [2], the “Mean arterial pressure (MAP)” value is on record as 115 mmHg. Moreover, the “Ejection fraction (EF)” value in data set [3] (6 weeks after 28-gauge TAC, Group II, SR9009 from 2 weeks after TAC (average EF 44% at start)) is 43.9%±5%. Besides, the “Ejection fraction (EF)” value in data set [3] (after cross-over, additional 5 weeks, Group I received SR9009 (EF 29.1% at cross-over)) is 29.8%±3.7%. For the same molecule, the “PE-induced expression of cellular stress markers (qPCR of Nppa and Nppb)” value in data set [4] (NRVMs pretreated 24 hours, then PE 48 hours, SR9009 at 5 (unit uncertain), GSK4112 at 10 (unit uncertain)) is “effectively blocked”. The “PE-induced cellular hypertrophy (cell size)” value in data set [4] (NRVMs pretreated 24 hours, then PE (100 μM) 48 hours, SR9009 at 5 (unit uncertain)) was “effectively blocked”. Moreover, in data set [4] (NRVMs, SR9009 given 24 hr prior to PE), the “PE repression of Pdk4 expression (RNA-Seq)” value is “ameliorated”. In addition, the “Toxicity of the SR9009 dose” value in data set [5] (10 mg/kg/day, daily i.p., mice) is recorded as “no apparent toxicity”. In data set [5] (4 weeks after 27-gauge TAC), the “Corrected left ventricle mass (LVm)” value is reported as 111.4 mg and the “Ejection fraction (EF)” value amounted to 61.4%. For the same molecule, in data set [5] (6 weeks after 27-gauge TAC), the “Corrected left ventricle mass (LVm)” value is recorded as 114.8 mg and the “Ejection fraction (EF)” value was 60.6%. In addition, the “Cell death, TUNEL positives per cross-section of the whole heart” value in data set [5] (6 weeks after TAC) was 13.4 positives per cross-section of the whole heart. Further, the Capillary density result in data set [5] (after 6 weeks of TAC, Veh- vs SR9009-treated) is listed as “no difference”. Moreover, the Intramuscular fibrosis area in data set [5] (end of 6 weeks after TAC, Gomori Trichrome) was determined as 1.1%. For the same molecule, the “ET-1-induced NPPB (BNP) expression” value in data set [6] was “protective effect”.
